Experimental data from PubChem BioAssay AID1963875 (Molecular Pharmacology Branch, DTP, NCI, 2024).

System: KRAS-mutant PDC complex spheroid viability
Assay: Anticancer human tumor 186277-243-T-J2-PDC patient-derived colon adenocarcinoma cell line growth inhibition [KRAS2]
Conditions: for viability, T/C: stronger effect = lower value
How it was run: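 KRAS-mutant tumor cells were grown as spheroids with HUVEC endothelial cells and human MSCs as stroma. Targeted agents were tested alone and with KRAS pathway inhibitors. Doses started at or near clinical Cmax, or 10 microM, descending half-log.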

[1] = curve of first compound, second compound 0.1 µM
[2] = curve of first compound, second compound 0.316 µM
[3] = curve of first compound, second compound 1 µM
[4] = curve of first compound, second compound 3.16 µM
[5] = curve of first compound, second compound 10 µM
[6] = second compound 0.1 µM, first compound 0.000316 µM
[7] = second compound 0.1 µM, first compound 0.001 µM
[8] = second compound 0.1 µM, first compound 0.00316 µM
[9] = second compound 0.1 µM, first compound 0.01 µM
[10] = second compound 0.1 µM, first compound 0.0316 µM
[11] = second compound 0.1 µM, first compound 0.1 µM
[12] = second compound 0.316 µM, first compound 0.000316 µM
[13] = second compound 0.316 µM, first compound 0.001 µM
[14] = second compound 0.316 µM, first compound 0.00316 µM
[15] = second compound 0.316 µM, first compound 0.01 µM
[16] = second compound 0.316 µM, first compound 0.0316 µM
[17] = second compound 0.316 µM, first compound 0.1 µM
[18] = second compound 1 µM, first compound 0.000316 µM
[19] = second compound 1 µM, first compound 0.001 µM
[20] = second compound 1 µM, first compound 0.00316 µM
[21] = second compound 1 µM, first compound 0.01 µM
[22] = second compound 1 µM, first compound 0.0316 µM
[23] = second compound 1 µM, first compound 0.1 µM
[24] = second compound 3.16 µM, first compound 0.000316 µM
[25] = second compound 3.16 µM, first compound 0.001 µM
[26] = second compound 3.16 µM, first compound 0.01 µM
[27] = second compound 3.16 µM, first compound 0.0316 µM
[28] = second compound 3.16 µM, first compound 0.1 µM
[29] = second compound 10 µM, first compound 0.000316 µM
[30] = second compound 10 µM, first compound 0.001 µM
[31] = second compound 10 µM, first compound 0.00316 µM
[32] = second compound 10 µM, first compound 0.01 µM
[33] = second compound 10 µM, first compound 0.0316 µM
[34] = second compound 10 µM, first compound 0.1 µM
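Wherever viability, T/C is given: viability read after seven days of compound exposure; 100% = DMSO vehicle-treated spheroids so lower means less viable.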

`CC(C)n1nc(-c2ccc3oc(N)nc3c2)c2c(N)ncnc21` + C=CC(=O)N1CCN(c2nc(=O)n(-c3c(C)ccnc3C(C)C)c3nc(-c4c(O)cccc4F)c(F)cc23)C(C)C1 was tested, and the IC50 [1] was 12.6 nM, the IC50 [2] was 17.6 nM and the IC50 [3] was 9.05 nM. For the same compound, the IC50 [4] was 4.66 nM, the IC50 [5] was under 0.316 nM and the viability, T/C [6] was 94.8%. The viability, T/C [7] was 93.1%, the viability, T/C [8] was 86.1% and the viability, T/C [9] was 52.6%. It also gave a viability, T/C [10] of 32.7%, a viability, T/C [11] of 19.5% and a viability, T/C [12] of 113%. The viability, T/C [13] was 103%, the viability, T/C [14] was 87.7% and the viability, T/C [15] was 65.6%. For the same compound, the viability, T/C [16] was 34.2%, the viability, T/C [17] was 18.9% and the viability, T/C [18] was 97.5%. The viability, T/C [19] was 107%, the viability, T/C [20] was 75.8% and the viability, T/C [21] was 48.9%. For the same compound, the viability, T/C [22] was 27.3%, the viability, T/C [23] was 20.1% and the viability, T/C [24] was 98%. For the same compound, the viability, T/C [25] was 89.4%, the viability, T/C (second compound 3.16 µM, first compound 0.00316 µM) was 58.6% and the viability, T/C [26] was 31.1%. The viability, T/C [27] was 20.1%, the viability, T/C [28] was 13.9% and the viability, T/C [29] was 45.9%. It also gave a viability, T/C [30] of 44.6%, a viability, T/C [31] of 34.7% and a viability, T/C [32] of 16.9%. The viability, T/C [33] was 14.7% and the viability, T/C [34] was 7.97%.
In the case of `CC1(C)CCC(CN2CCN(c3ccc(C(=O)NS(=O)(=O)c4ccc(NCC5CCOCC5)c([N+](=O)[O-])c4)c(Oc4cnc5[nH]ccc5c4)c3)CC2)=C(c2ccc(Cl)cc2)C1`, the viability, T/C (compound 0.0316 µM) is reported as 97.6% [middle of 5 runs], the viability, T/C (compound 0.1 µM) is reported as 93.7% [middle of 5 runs] and the viability, T/C (compound 0.316 µM) is reported as 104% [middle of 5 runs]. For the same compound, the viability, T/C (compound 1 µM) was 98.1% [middle of 5 runs], the viability, T/C (compound 3.16 µM) was 22.7% [middle of 5 runs] and the viability, T/C (compound 10 µM) was 4.85% [middle of 5 runs]. For the same compound, the IC50 (curve of compound) was 2.07 µM [middle of 5 runs].
Work on `Cn1ncnc1[C@H]1c2n[nH]c(=O)c3cc(F)cc(c23)N[C@@H]1c1ccc(F)cc1` + C=CC(=O)N1CCN(c2nc(=O)n(-c3c(C)ccnc3C(C)C)c3nc(-c4c(O)cccc4F)c(F)cc23)C(C)C1 yielded an IC50 [1] of over 100 nM, an IC50 [2] of over 100 nM and an IC50 [3] of over 100 nM. It also gave an IC50 [4] of over 100 nM, an IC50 [5] of 3.32 nM and a viability, T/C [6] of 98.5%. It also gave a viability, T/C [7] of 97.1%, a viability, T/C [8] of 111% and a viability, T/C [9] of 105%. For the same compound, the viability, T/C [10] was 95%, the viability, T/C [11] was 75.8% and the viability, T/C [12] was 106%. For the same compound, the viability, T/C [13] was 114%, the viability, T/C [14] was 105% and the viability, T/C [15] was 103%. For the same compound, the viability, T/C [16] was 87.8%, the viability, T/C [17] was 79% and the viability, T/C [18] was 106%. It also gave a viability, T/C [19] of 105%, a viability, T/C [20] of 108% and a viability, T/C [21] of 98.7%. The viability, T/C [22] was 85.2%, the viability, T/C [23] was 67.2% and the viability, T/C [24] was 99.6%. For the same compound, the viability, T/C [25] was 101%, the viability, T/C [26] was 76.5% and the viability, T/C [27] was 61.6%. It also gave a viability, T/C [28] of 50.6%, a viability, T/C [29] of 45% and a viability, T/C [30] of 60.2%. The viability, T/C [31] was 51%, the viability, T/C [32] was 28.3% and the viability, T/C [33] was 32.9%. It also gave a viability, T/C [34] of 24.1%.
With `COc1cc2nccc(Oc3ccc(NC(=O)C4(C(=O)Nc5ccc(F)cc5)CC4)cc3)c2cc1OC` + C=CC(=O)N1CCN(c2nc(OCC3CCCN3C)nc3c2CCN(c2cccc4cccc(C)c24)C3)CC1CC#N the IC50 (curve of first compound, second compound 0.0316 µM) was 1880 nM, the IC50 [1] was 1890 nM and the IC50 [2] was 1720 nM. The IC50 [3] was 1060 nM, the IC50 [4] was under 31.6 nM and the viability, T/C (second compound 0.0316 µM, first compound 0.0316 µM) was 108%. It also gave a viability, T/C (second compound 0.0316 µM, first compound 0.1 µM) of 107%, a viability, T/C (second compound 0.0316 µM, first compound 0.316 µM) of 114% and a viability, T/C (second compound 0.0316 µM, first compound 1 µM) of 95.5%. The viability, T/C (second compound 0.0316 µM, first compound 3.16 µM) was 12.5%, the viability, T/C (second compound 0.0316 µM, first compound 10 µM) was 12.3% and the viability, T/C [10] was 113%. The viability, T/C [11] was 122%, the viability, T/C (second compound 0.1 µM, first compound 0.316 µM) was 110% and the viability, T/C (second compound 0.1 µM, first compound 1 µM) was 97.8%. For the same compound, the viability, T/C (second compound 0.1 µM, first compound 3.16 µM) was 11.4%, the viability, T/C (second compound 0.1 µM, first compound 10 µM) was 10.8% and the viability, T/C [16] was 109%. It also gave a viability, T/C [17] of 108%, a viability, T/C (second compound 0.316 µM, first compound 0.316 µM) of 116% and a viability, T/C (second compound 0.316 µM, first compound 1 µM) of 85.3%. It also gave a viability, T/C (second compound 0.316 µM, first compound 3.16 µM) of 10.5%, a viability, T/C (second compound 0.316 µM, first compound 10 µM) of 11.3% and a viability, T/C [22] of 107%. For the same compound, the viability, T/C [23] was 109%, the viability, T/C (second compound 1 µM, first compound 0.316 µM) was 112% and the viability, T/C (second compound 1 µM, first compound 1 µM) was 52.5%. It also gave a viability, T/C (second compound 1 µM, first compound 3.16 µM) of 3.98%, a viability, T/C (second compound 1 µM, first compound 10 µM) of 0.37% and a viability, T/C [27] of 0.41%. For the same compound, the viability, T/C [28] was 0.44%, the viability, T/C (second compound 3.16 µM, first compound 0.316 µM) was 0.24% and the viability, T/C (second compound 3.16 µM, first compound 1 µM) was 0.21%. For the same compound, the viability, T/C (second compound 3.16 µM, first compound 3.16 µM) was 0.13% and the viability, T/C (second compound 3.16 µM, first compound 10 µM) was 0.2%.
